Each compound was assayed against T1, wild-type menin / MLL-AF9 fusion protein (Homo sapiens, UniProt O00255) (assay: AlphaLISA menin/MLL binding assay, wild-type menin (Assay 1)). Conditions: biotinylated wild-type menin 5 nM, MLL-AF9-FLAG lysate.
T1 construct: made in house; host or cells: E. coli (menin); HEK293 cleared lysate (MLL-AF9-FLAG)
T1 sequence (O00255 1-610): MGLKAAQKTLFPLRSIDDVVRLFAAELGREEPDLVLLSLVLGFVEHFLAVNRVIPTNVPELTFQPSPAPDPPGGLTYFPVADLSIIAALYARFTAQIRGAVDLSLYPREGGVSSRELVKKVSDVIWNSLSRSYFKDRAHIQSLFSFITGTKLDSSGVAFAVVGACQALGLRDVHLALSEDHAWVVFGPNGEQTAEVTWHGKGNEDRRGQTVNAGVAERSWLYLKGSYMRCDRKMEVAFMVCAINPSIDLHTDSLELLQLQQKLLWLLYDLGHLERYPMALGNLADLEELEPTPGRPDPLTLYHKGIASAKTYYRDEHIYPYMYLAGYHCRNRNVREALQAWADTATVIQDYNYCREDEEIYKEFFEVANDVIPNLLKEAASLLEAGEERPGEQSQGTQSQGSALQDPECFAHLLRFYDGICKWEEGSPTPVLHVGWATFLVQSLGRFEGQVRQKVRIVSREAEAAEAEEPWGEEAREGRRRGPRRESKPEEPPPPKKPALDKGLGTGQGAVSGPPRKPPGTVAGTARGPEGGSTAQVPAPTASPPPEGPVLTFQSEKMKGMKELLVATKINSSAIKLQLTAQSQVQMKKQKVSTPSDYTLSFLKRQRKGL
Method: Potencies of inhibitor compounds against menin/MLL binding were assessed by AlphaLISA assay using biotinylated (1) wild-type menin or (2) mutated menin (described in Nature (2012) Vol. 482, pp. 542-548) and MLL-AF9 fusion protein bearing a FLAG epitope at its C-terminus. Menin proteins were expressed in E. coli and covalently modified with biotin using EZ-Link™ Sulfo-NHS-Biotin (ThermoFisher Cat. No. 21217) according to manufacturer's protocol. MLL1-1,396 fused to AF91-92 and the C-terminal FLAG peptide was expressed in HEK293 cells and used as a lysate cleared at 21,000×g for 10 min.
Compounds (2 μL of solutions in DMSO) were dispensed in white 96-well half-area plates (Corning Cat. No. 3693) and incubated for 30 min at RT with 5 nM biotinylated menin and appropriate amount of MLL-AF9-FLAG lysate in 40 μL of 50 mM Tris-HCl buffer pH 7.4 containing 5% (v/v) DMSO, 50 mM NaCl, 0.01% (w/v) bovine serum albumin (BSA) and 1 mM DTT. To this incubation mixture, 40 μl of AlphaLISA anti-FLAG acceptor (PerkinElmer Cat. No. AL112C) and streptavidin donor (PerkinElmer Cat. No. 6760002) beads (10 μg/mL each) was added and incubation continued at RT for 60 min. Alpha (amplified luminescent proximity homogeneous assay) signal was measured on an Envision multi-label plate reader at the end of the incubation. All steps were conducted under dim fluorescent light.
These percent inhibition values were regressed against compound concentrations in the assay using four parameter logit non-linear curve fitting (XLFit, IDBS). The IC50 values were derived from the curve fitting as inflection points on the dose-response curves and are set out in Table 1 below.
Cc1c(CN2CCC3(CCN(c4ncnc5sc(CC(F)(F)F)cc45)C3)C2)ccc2[nH]c(C#N)cc12 (single isomer, unassigned) [Example 30b, 4-methyl-5-((7-(6-(2,2,2-trifluoroethyl)thieno[2,3-d]pyrimidin-4-yl)-2,7-diazaspiro[4.4]nonan-2-yl)methyl)-1H-indole-2-carbonitrile] was tested, and the IC50 was less than 0.1 µM.
Cc1c(CN2CC[C@@]3(CCN(c4ccnc5ccc(CC(F)(F)F)cc45)C3)C2)ccc2[nH]c(C#N)cc12 (single isomer, unassigned) [Example 86a, 4-methyl-5-((7-(6-(2,2,2-trifluoroethyl)quinolin-4-yl)-2,7-diazaspiro[4.4]nonan-2-yl)methyl)-1H-indole-2-carbonitrile] was tested, and the IC50 was 0.1 to 1 µM.
Cc1c(CN2CC[C@@]3(CCN(c4ccnc5ccc(CC(F)(F)F)cc45)C3)C2)ccc2[nH]c(C#N)cc12 (single isomer, unassigned) [Example 86b, 4-methyl-5-((7-(6-(2,2,2-trifluoroethyl)quinolin-4-yl)-2,7-diazaspiro[4.4]nonan-2-yl)methyl)-1H-indole-2-carbonitrile] was tested, and the IC50 was 0.1 to 1 µM.
CC(C)N1CC2(CCN(c3ncnc4sc(CC(F)(F)F)cc34)CC2)C1 [Example 3, 4-(2-isopropyl-2,7-diazaspiro[3.5]nonan-7-yl)-6-(2,2,2-trifluoroethyl)thieno[2,3-d]pyrimidine] showed an IC50 of no less than 1 µM.
FC(F)(F)Cc1cc2c(N3CCC4(CC3)CN(CC3CCCO3)C4)ncnc2s1 (centres unmarked) [Example 4, 4-(2-((tetrahydrofuran-2-yl)methyl)-2,7-diazaspiro[3.5]nonan-7-yl)-6-(2,2,2-trifluoroethyl)thieno[2,3-d]pyrimidine] showed an IC50 of no less than 1 µM.
FC(F)(F)Cc1cc2c(N3CCC4(CC3)CN(CC3CCOC3)C4)ncnc2s1 (centres unmarked) [Example 5, 4-(2-((tetrahydrofuran-3-yl)methyl)-2,7-diazaspiro[3.5]nonan-7-yl)-6-(2,2,2-trifluoroethyl)thieno[2,3-d]pyrimidine] was tested, and the IC50 was 0.1 to 1 µM.
Compound FC(F)(F)Cc1cc2c(N3CCC4(CC3)CN(CC3CCCCO3)C4)ncnc2s1 (centres unmarked) [Example 6, 4-(2-((tetrahydro-2H-pyran-2-yl)methyl)-2,7-diazaspiro[3.5]nonan-7-yl)-6-(2,2,2-trifluoroethyl)thieno[2,3-d]pyrimidine] has an IC50 of no less than 1 µM.
In the case of FC(F)(F)Cc1cc2c(N3CCC4(CC3)CN(CC3CCCOC3)C4)ncnc2s1 (centres unmarked) [Example 7, 4-(2-((tetrahydro-2H-pyran-3-yl)methyl)-2,7-diazaspiro[3.5]nonan-7-yl)-6-(2,2,2-trifluoroethyl)thieno[2,3-d]pyrimidine], the IC50 is reported as no less than 1 µM.
FC(F)(F)Cc1cc2c(N3CCC4(CC3)CN(C3CCOCC3)C4)ncnc2s1 [Example 8, 4-(2-(tetrahydro-2H-pyran-4-yl)-2,7-diazaspiro[3.5]nonan-7-yl)-6-(2,2,2-trifluoroethyl)thieno[2,3-d]pyrimidine] was tested, and the IC50 was no less than 1 µM.
With FC(F)(F)Cc1cc2c(N3CCC4(CC3)CN(C3CCCCC3)C4)ncnc2s1 [Example 9, 4-(2-cyclohexyl-2,7-diazaspiro[3.5]nonan-7-yl)-6-(2,2,2-trifluoroethyl)thieno[2,3-d]pyrimidine] the IC50 was 0.1 to 1 µM.
In the case of FC(F)(F)Cc1cc2c(N3CCC4(CC3)CN(CC3CCCC(F)(F)C3)C4)ncnc2s1 (centres unmarked) [Example 11, 4-(2-((3,3-difluorocyclohexyl)methyl)-2,7-diazaspiro[3.5]nonan-7-yl)-6-(2,2,2-trifluoroethyl)thieno[2,3-d]pyrimidine], the IC50 is reported as 0.1 to 1 µM.
FC(F)(F)Cc1cc2c(N3CCC4(CC3)CN(CC3CCC(F)(F)CC3)C4)ncnc2s1 [Example 12, 4-(2((4,4-difluorocyclohexyl)methyl)-2,7-diazaspiro[3.5]nonan-7-yl)-6-(2,2,2-trifluoroethyl)thieno[2,3-d]pyrimidine] gave an IC50 of 0.1 to 1 µM.
In the case of COC1CC(CN2CC3(CCN(c4ncnc5sc(CC(F)(F)F)cc45)CC3)C2)C1 (centres unmarked) [Example 13], the IC50 is reported as no less than 1 µM.
Compound FC(F)(F)Cc1cc2c(N3CCC4(CC3)CN(CC3CC(F)(F)C3)C4)ncnc2s1 [Example 14, 4-(2-((3,3-difluorocyclobutyl)methyl)-2,7-diazaspiro[3.5]nonan-7-yl)-6-(2,2,2-trifluoroethyl)thieno[2,3-d]pyrimidine] has an IC50 of 0.1 to 1 µM.
For CC(C)(O)CN1CC2(CCN(c3ncnc4sc(CC(F)(F)F)cc34)CC2)C1 [Example 15, 2-methyl-1-(7-(6-(2,2,2-trifluoroethyl)thieno[2,3-d]pyrimidin-4-yl)-2,7-diazaspiro[3.5]nonan-2-yl)propan-2-ol], the IC50 was no less than 1 µM.
CC(C)(F)CN1CC2(CCN(c3ncnc4sc(CC(F)(F)F)cc34)CC2)C1 [Example 16, 4-(2-(2-fluoro-2-methylpropyl)-2,7-diazaspiro[3.5]nonan-7-yl)-6-(2,2,2-trifluoroethyl)thieno[2,3-d]pyrimidine] was tested, and the IC50 was no less than 1 µM.
In the case of CC(C)(N)CC(=O)N1CC2(CCN(c3ncnc4sc(CC(F)(F)F)cc34)CC2)C1 [Example 17, 3-amino-3-methyl-1-(7-(6-(2,2,2-trifluoroethyl)thieno[2,3-d]pyrimidin-4-yl)-2,7-diazaspiro[3.5]nonan-2-yl)butan-1-one], the IC50 is reported as no less than 1 µM.
Compound FC(F)(F)Cc1cc2c(N3CCC4(CC3)CN(CC3CCOCC3)C4)ncnc2s1 [Example 19, 4-(2-((tetrahydro-2H-pyran-4-yl)methyl)-2,7-diazaspiro[3.5]nonan-7-yl)-6-(2,2,2-trifluoroethyl)thieno[2,3-d]pyrimidine] has an IC50 of 0.1 to 1 µM.
Cc1c(CN2CC3(CCN(c4ncnc5sc(CC(F)(F)F)cc45)CC3)C2)ccc2[nH]c(C#N)cc12 [Example 21, 4-methyl-5-((7-(6-(2,2,2-trifluoroethyl)thieno[2,3-d]pyrimidin-4-yl)-2,7-diazaspiro[3.5]nonan-2-yl)methyl)-1H-indole-2-carbonitrile] was tested, and the IC50 was 0.1 to 1 µM.
With FC(F)(F)Cc1cc2c(N3CCC4(CCN(CC5CCOC5)C4)C3)ncnc2s1 (centres unmarked) [Example 31, 4-(7-((Tetrahydrofuran-3-yl)methyl)-2,7-diazaspiro[4.4]nonan-2-yl)-6-(2,2,2-trifluoroethyl)thieno[2,3-d]pyrimidine] the IC50 was 0.1 to 1 µM.
Work on FC(F)(F)Cc1cc2c(N3CCC4(CCN(CC5CCC(F)(F)CC5)C4)C3)ncnc2s1 (centres unmarked) [Example 32, 4-(7-((4,4-difluorocyclohexyl)methyl)-2,7-diazaspiro[4.4]nonan-2-yl)-6-(2,2,2-trifluoroethyl)thieno[2,3-d]pyrimidine] yielded an IC50 of 0.1 to 1 µM.
With N#Cc1cccc(CN2CCC3(CCN(c4ncnc5sc(CC(F)(F)F)cc45)C3)C2)c1 (centres unmarked) [Example 35, 3-((7-(6-(2,2,2-Trifluoroethyl)thieno[2,3-d]pyrimidin-4-yl)-2,7-diazaspiro[4.4]nonan-2-yl)methyl)benzonitrile] the IC50 was 0.1 to 1 µM.
For CS(=O)(=O)c1ccc(CN2CCC3(CCN(c4ncnc5sc(CC(F)(F)F)cc45)C3)C2)c(Cl)c1 (centres unmarked) [Example 36, 4-(7-(2-chloro-4-(methylsulfonyl)benzyl)-2,7-diazaspiro[4.4]nonan-2-yl)-6-(2,2,2-trifluoroethyl)thieno[2,3-d]pyrimidine], the IC50 was 0.1 to 1 µM.
FC(F)(F)Cc1cc2c(N3CCC4(CCN(C[C@H]5CC[C@H](C(F)(F)F)CC5)C4)C3)ncnc2s1 (some centres unmarked) [Example 37, 6-(2,2,2-Trifluoroethyl)-4-(7-(((1r,4r)-4-(trifluoromethyl)cyclohexyl)methyl)-2,7-diazaspiro[4.4]nonan-2-yl)thieno[2,3-d]pyrimidine] was tested, and the IC50 was 0.1 to 1 µM.
In the case of CC(=O)N[C@H]1CC[C@H](CN2CCC3(CCN(c4ncnc5sc(CC(F)(F)F)cc45)C3)C2)CC1 (some centres unmarked) [Example 47, N-((1r,4r)-4-((7-(6-(2,2,2-trifluoroethyl)thieno[2,3-d]pyrimidin-4-yl)-2,7-diazaspiro[4.4]nonan-2-yl)methyl)cyclohexyl)acetamide], the IC50 is reported as 0.1 to 1 µM.
For CC(=O)N[C@H]1CC[C@@H](CN2CCC3(CCN(c4ncnc5sc(CC(F)(F)F)cc45)C3)C2)CC1 (some centres unmarked) [Example 50, N-((1s,4s)-4-((7-(6-(2,2,2-Trifluoroethyl)thieno[2,3-d]pyrimidin-4-yl)-2,7-diazaspiro[4.4]nonan-2-yl)methyl)cyclohexyl)acetamide], the IC50 was 0.1 to 1 µM.

Reference: patent US20190010167A1, “INHIBITORS OF THE MENIN-MLL INTERACTION” (Vitae Pharmaceuticals, Inc., priority 2015, published 2019)
